Source: ChEMBL document CHEMBL1201862, “PubChem BioAssay data set” (2004)
Activity calls are given as the source filed them.

How the values were obtained:
[1] = biological target: T1, Carboxy-terminal domain RNA polymerase II polypeptide A small phosphatase 1 (Homo sapiens, UniProt Q9GZU7); experiment: inhibitors of CTDSP1, concentration-response testing, biochemical assay, absorbance-based, actives from ultra-high-throughput screening (AID 540297); assay type: functional
T1 sequence (Q9GZU7 whole entry): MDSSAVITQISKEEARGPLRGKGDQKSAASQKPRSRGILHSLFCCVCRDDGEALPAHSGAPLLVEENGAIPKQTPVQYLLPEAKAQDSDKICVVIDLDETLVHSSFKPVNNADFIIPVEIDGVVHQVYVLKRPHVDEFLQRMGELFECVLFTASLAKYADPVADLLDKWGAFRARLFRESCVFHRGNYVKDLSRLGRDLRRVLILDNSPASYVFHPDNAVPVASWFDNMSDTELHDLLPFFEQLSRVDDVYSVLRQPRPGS

[2] = biological target: T2, Long-chain-fatty-acid--AMP ligase FadD28 (Mycobacterium tuberculosis, UniProt P9WQ59); experiment: Fluorescence polarization aasay to screen for inhibitors that compete for the binding of FadD28 to a bisubstrate Measured in Biochemical System Using Plate Reader - 2147-01_Inhibitor_Dose_CherryPick_Activity.; assay type: functional, Mycobacterium tuberculosis H37Rv
T2 sequence (P9WQ59 whole entry): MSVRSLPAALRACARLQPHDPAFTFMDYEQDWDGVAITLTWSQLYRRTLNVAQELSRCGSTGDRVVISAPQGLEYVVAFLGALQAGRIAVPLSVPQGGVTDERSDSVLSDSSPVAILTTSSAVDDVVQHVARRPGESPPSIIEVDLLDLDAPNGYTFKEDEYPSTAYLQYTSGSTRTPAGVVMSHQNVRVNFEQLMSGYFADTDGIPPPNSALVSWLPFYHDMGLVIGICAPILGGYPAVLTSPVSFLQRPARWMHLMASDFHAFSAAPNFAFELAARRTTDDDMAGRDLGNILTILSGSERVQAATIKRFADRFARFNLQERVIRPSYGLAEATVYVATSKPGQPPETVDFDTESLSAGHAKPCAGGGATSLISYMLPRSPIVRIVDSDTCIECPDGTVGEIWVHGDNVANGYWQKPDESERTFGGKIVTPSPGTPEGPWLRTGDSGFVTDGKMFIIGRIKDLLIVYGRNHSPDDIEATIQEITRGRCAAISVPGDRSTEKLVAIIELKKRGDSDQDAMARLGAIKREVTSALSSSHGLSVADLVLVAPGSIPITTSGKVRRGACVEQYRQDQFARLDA

[3] = NIH-3T3 fibroblast cytotoxicity, dose response, cytotoxicity control, cell-based, fluorescence, Alamar Blue, secondary assay (AID 2327); assay type: functional;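 further: NIH-3T3 mouse fibroblasts cultured with fluconazole at 8 µg/mL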
Cytochrome P450 1A2 = biological target: T3, Cytochrome P450 1A2 (Homo sapiens, UniProt P05177);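 further: PubChem cytochrome P450 panel assay, CYP1A2 panel member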
T3 sequence (P05177 whole entry): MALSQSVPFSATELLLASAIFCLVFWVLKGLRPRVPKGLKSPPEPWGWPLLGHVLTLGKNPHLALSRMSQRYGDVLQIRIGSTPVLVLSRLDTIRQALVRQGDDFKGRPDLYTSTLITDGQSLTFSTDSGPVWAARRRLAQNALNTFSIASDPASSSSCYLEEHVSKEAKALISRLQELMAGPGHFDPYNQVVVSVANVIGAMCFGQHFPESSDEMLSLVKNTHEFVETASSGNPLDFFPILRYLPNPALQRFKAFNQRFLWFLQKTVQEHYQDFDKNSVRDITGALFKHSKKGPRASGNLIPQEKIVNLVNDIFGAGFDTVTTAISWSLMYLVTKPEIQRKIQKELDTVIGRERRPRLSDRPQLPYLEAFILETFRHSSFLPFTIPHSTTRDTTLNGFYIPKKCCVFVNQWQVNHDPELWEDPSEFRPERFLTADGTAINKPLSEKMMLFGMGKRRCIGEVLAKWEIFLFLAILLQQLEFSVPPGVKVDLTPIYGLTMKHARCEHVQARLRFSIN

Cytochrome P450 2C9 = Cytochrome P450 2C9 (Homo sapiens, UniProt P11712)
[4] = biological target: T4, Corticotropin-releasing factor receptor 2/Corticotropin-releasing factor-binding protein (Homo sapiens, UniProt P24387+Q13324); experiment: activators of CRF receptor 2 with binding protein – uHTS hits, confirmation (AID 602473); assay type: functional; details: read-out: EC50_Mean
T4 sequence (Q13324 whole entry): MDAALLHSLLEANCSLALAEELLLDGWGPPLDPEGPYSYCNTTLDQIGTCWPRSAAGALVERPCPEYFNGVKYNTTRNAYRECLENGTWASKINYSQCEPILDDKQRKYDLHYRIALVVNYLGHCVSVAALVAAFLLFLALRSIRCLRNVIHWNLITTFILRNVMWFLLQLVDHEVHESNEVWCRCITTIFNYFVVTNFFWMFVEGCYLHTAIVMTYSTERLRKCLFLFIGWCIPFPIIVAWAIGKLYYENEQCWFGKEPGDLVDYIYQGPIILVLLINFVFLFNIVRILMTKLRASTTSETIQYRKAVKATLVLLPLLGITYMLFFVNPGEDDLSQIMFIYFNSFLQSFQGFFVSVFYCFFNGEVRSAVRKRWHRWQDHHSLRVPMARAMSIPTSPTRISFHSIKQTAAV
T4 sequence (P24387 whole entry): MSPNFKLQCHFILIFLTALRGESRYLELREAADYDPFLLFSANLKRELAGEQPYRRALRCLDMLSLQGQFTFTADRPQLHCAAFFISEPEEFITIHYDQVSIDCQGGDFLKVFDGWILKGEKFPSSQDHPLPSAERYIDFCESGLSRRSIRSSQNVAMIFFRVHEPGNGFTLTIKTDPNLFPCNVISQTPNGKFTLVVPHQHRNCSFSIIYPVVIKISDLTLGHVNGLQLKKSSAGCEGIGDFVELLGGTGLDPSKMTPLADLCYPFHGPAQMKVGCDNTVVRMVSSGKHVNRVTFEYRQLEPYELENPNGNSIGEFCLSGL

Kallikrein-7 = Kallikrein-7 (Homo sapiens, UniProt P49862); experiment: Fluorescence Intensity-based biochemical primary high throughput dose response assay to identify activators of kallikrein-7 (K7) zymogen.
[5] = biological target: T5, Sentrin-specific protease 8 (Homo sapiens, UniProt Q96LD8); assay type: functional
T5 sequence (Q96LD8 whole entry): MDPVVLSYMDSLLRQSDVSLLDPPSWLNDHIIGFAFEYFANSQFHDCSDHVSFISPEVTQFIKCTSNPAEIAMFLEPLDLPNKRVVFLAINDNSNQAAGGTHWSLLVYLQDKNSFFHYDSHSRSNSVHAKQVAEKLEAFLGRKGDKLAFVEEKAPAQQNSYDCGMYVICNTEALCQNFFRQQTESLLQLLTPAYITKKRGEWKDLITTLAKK

[6] = Luminescence Cell-Based Dose Retest to Confirm Inhibitors of Cancer Stem Cells. [Related pubchem assays (depositor defined):AID2717, AID2721]; assay type: functional, Homo sapiens; details: Homo sapiens

Sequence of Kallikrein-7 (P49862 whole entry): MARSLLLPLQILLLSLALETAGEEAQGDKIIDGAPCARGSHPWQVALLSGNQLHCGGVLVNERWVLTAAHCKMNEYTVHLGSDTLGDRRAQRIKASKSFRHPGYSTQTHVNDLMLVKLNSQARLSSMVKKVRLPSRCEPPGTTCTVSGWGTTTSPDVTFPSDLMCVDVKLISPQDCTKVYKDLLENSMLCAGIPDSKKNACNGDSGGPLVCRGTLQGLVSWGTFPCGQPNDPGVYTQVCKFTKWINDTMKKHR
Sequence of Cytochrome P450 2C9 (P11712 whole entry): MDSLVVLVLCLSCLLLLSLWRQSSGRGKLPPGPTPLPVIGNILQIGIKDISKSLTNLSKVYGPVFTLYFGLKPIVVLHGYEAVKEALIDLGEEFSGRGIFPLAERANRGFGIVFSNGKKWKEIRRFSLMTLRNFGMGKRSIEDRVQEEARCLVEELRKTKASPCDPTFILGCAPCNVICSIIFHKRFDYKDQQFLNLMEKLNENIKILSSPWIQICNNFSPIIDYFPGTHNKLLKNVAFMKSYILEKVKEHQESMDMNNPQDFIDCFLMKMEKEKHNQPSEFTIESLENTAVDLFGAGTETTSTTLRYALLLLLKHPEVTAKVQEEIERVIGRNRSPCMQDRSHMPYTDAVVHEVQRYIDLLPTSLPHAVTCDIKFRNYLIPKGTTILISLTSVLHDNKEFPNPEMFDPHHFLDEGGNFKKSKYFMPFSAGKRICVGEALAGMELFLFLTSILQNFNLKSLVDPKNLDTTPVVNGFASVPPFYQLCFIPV

SMILES | IC50 [1] | AC50 [2] | other results
C=C(C)C(=O)N1CC2(CC(c3cccc(NC(=O)/C=C\C=C/C)c3)=NO2)C[C@H]1C(N)=O (some centres undefined) | 9.08 µM (active) |  | 
CC(C)(C)NS(=O)(=O)c1ccc(NC(=O)CS(=O)(=O)Cc2ccccc2)cc1 |  | > 100 µM (inactive) | 
CC(C)=C1C(=O)NN(c2ccc(F)c(Cl)c2)C1=O |  | > 100 µM (inactive) | EC50 [3]: > 160 µM (inactive); AC50 (Cytochrome P450 1A2): 31.6 µM (inconclusive); AC50 (Cytochrome P450 2C9): 20 µM (inconclusive)
O=C(O)c1cc(Cl)ccc1-c1ccc(/C=C/c2cc(C(F)(F)F)nc(O)n2)o1 |  | > 100 µM (inactive) | EC50 [4]: 6.29 µM (active)
NS(=O)(=O)c1ccc(NC(=O)C2Cc3ccccc3CN2C(=O)c2ccco2)cc1 (centres undefined) | 6.06 µM (active) |  | 
O=C1N=C(Nc2cccnc2)S/C1=C/c1ccc(F)cc1 | 18.4 µM (active) |  | 
O=C(NC1CC1)C1CCN(S(=O)(=O)c2cc([N+](=O)[O-])ccc2Cl)CC1 | 2.49 µM (active) |  | 
O=C(NNS(=O)(=O)c1ccc(F)cc1)c1cc(Cl)ccc1O |  | > 100 µM (inactive) | 
COCCn1c(=S)[nH]c2sc3c(c2c1=O)CCC(C)C3 (centres undefined) |  | 53.8 µM (active) | 
Cc1cc(C=O)c(C)n1-c1cccc(C(=O)O)c1 | 6.32 µM (active) |  | 
CC(C)OCCOc1ccc2oc(-c3ccco3)cc(=O)c2c1 | 21.7 µM (active) |  | EC50 (Kallikrein-7): > 7.72 µM (active)
CCOC(=O)CC1(C)OCC(C[N+]2(C)CCCCC2)O1 (centres undefined) | 5.57 µM (active) |  | 
Cc1nc2ccccc2n1/N=C/c1ccc([N+](=O)[O-])o1 |  |  | IC50 [5]: 38.4 µM (active); AC50 [6]: 10.9 µM (active)
